pEC50: −log10 of the molar value.
What was measured:
Assay type in all cases: cell-based
GT2a-6a-HK6a replicon = experiment: Stable replicon assay, comparison to daclatasvir, GT2a-6a-HK6a; settings: Hepatitis C virus
From the text: (§1) The plasmid pSG-hRlucNeo-JFH1 was generated from pSG-Neo-JFH1 (Kato et al. 2003, Gastroentrology 125:1808-1817). A fragment containing the JFH-1 5′ NTR-hRluc-Neo gene and two unique restriction sites (AgeI and PmeI) was synthesized (Integrated DNA Technologies, Coralville, Iowa). The resulting plasmid was digested with AgeI and PmeI and the excised fragment (5′NTR-hRluc-Neo) was ligated into pSG-Neo-JFH1 digested with the same enzymes to generate pSG-hRlucNeo-JFH1. To allow expression of heterologous NS5A sequences, an NS5A shuttle vector was generated from pSG-Neo-JFH1, in which the entire coding sequence of NS5A plus the first eight codons of NS5B were replaced with an AfeI restriction site. This was done by Infusion cloning (Clontech, Mountain View, Calif.) from two PCR products that were generated using pSG-Neo-JFH1 as a template and the following primer pairs:
(§2) To express GT6a NS5A chimeric sequences a JFH1-based N-terminal NS5A (NS5A residues 2-107) shuttle vector was constructed by Infusion cloning from two PCR products that were generated using pSG-Neo-JFH1 as a template and the following primers: […]
(§3) Purified PCR products were inserted into an NsiI/SnaBI digested pSG-Neo-JFH1 vector by Infusion cloning following the manufacturer's instructions to generate pSG-Neo-JFH1-Nterm_5Ashuttle. […]

[1] = tested on: wild type (wt) HCV genotype 1a replicon; experiment: Transient replication assay, HCV genotype 1a wild type (wt); settings: Hepatitis C virus; HCV genotype 1a replicon wt
GT2a-5a-SA13 replicon = experiment: Stable replicon assay, comparison to daclatasvir, GT2a-5a-SA13; settings: Hepatitis C virus
From the text: as §1, with “pairs: […]” for “pairs:”
Stable HCV replicon cell lines were grown in complete media (Dulbecco's modified Eagle medium [DMEM], 2 mM L-glutamine, 0.1 mM essential amino acids, 1 mM sodium pyruvate, 10% fetal bovine serum) with the addition 500 μg/ml […] (G418). […] For stable and transient replicon assays, luciferase activity of compound-treated cells was measured relative to DMSO-treated cells after 72 h incubation using RENILLA-GLO™ Luciferase Assay (Promega). […]

[2] = tested on: HCV genotype 1a replicon, NS5A Q30R; experiment: Transient replication assay, GT1a NS5A Q30R; settings: Hepatitis C virus
GT2a-6a-EUKH2 replicon = experiment: Stable replicon assay, comparison to daclatasvir, GT2a-6a-EUKH2; settings: Hepatitis C virus
From the text: as §1, §2, §3

[3] = tested on: HCV genotype 1a replicon, NS5A H58D; experiment: Transient replication assay, GT1a NS5A H58D; settings: Hepatitis C virus
[4] = tested on: HCV genotype 1a replicon, NS5A P32L; experiment: Transient replication assay, GT1a NS5A P32L; settings: Hepatitis C virus

SMILES | pEC50 (GT2a-6a-HK6a replicon) | pEC50 [1] | pEC50 (GT2a-5a-SA13 replicon) | pEC50 [2] | pEC50 (GT2a-6a-EUKH2 replicon) | pEC50 [3] | pEC50 [4]
COC(=O)N[C@H](C(=O)N1C[C@]2(CCCOC2)C[C@H]1c1ncc(-c2ccc(-c3ccc4c(ccc5nc([C@@H]6C[C@@H]7CCC[C@@H]7N6C(=O)[C@@H](NC(=O)OC)C(C)C)[nH]c54)c3)cc2)[nH]1)C(C)C [Compound 16] | 11.70 | 11.85 | 11.30 | 10.92 | 10.85 | 11.00 | 10.34
COC(=O)N[C@H](C(=O)N1CCC[C@H]1c1nc(-c2ccc(-c3ccc(-c4c[nH]c([C@@H]5CCCN5C(=O)[C@@H](NC(=O)OC)C(C)C)n4)cc3)cc2)c[nH]1)C(C)C [Daclatasvir, reference compound] | 11.30 | 11.08 | 11.05 | 8.47 | 9.84 | 8.92 | 8.72

— patent US10407445B2, “Hepatitis C virus inhibitors” (ENANTA PHARMACEUTICALS, INC., priority 2013, dated 2019)
